Test results published in US6743575B2, “Compositions and methods for the preservation of living tissues” (Biostore New Zealand Ltd., priority 1996, dated 2004).

Tested on: mouse embryos
Assay: Storage of mouse embryos at 4° C., survival assessed by hatching in subsequent culture
Type: cell-based
Conditions: for ranking of Class I and Class II solutes for hatching of stored embryos: storage 1-3 days at 4° C., Class I:Class II 1.6:1, 1.75 mM CaSO4
Procedure: The efficacy of the solutions of the present invention in the preservation of mouse embryos was tested as described below. As embryos consist of rapidly dividing cells, they are difficult to arrest, and therefore provide a sensitive test of storage solutions. Embryos also have the advantage that survival in storage can be assessed after 1-5 days by their ability to hatch in subsequent culture.
Viable mouse embryos were stored for periods of 1, 2 or 3 days at 4° C. in either PBS or an aqueous solution of either raffinose, trehalose, sucrose or lactose (Class I solutes), together with a solute selected from the group consisting of trimethyl amine oxide (TMAO), betaine, taurine, sarcosine, glucose, mannose, fructose, ribose, galactose, sorbitol, mannitol, inositol and taurine (Class II solutes), at a ratio of Class I solute to Class II solute of 1.6:1. Each Class I/Class II solution also contained calcium sulfate at a concentration of 1.75 mM. The solutions also contained 0.1-1% bovine serum albumin (BSA) and 25 mg/L of kanamycin sulfate. All reagents were obtained from Sigma Chemical Company (St. Louis, Mo.). Survival of the embryos was assessed by subsequent culture in Dulbecco's Modified Eagles Medium (DMEM, Life Technologies, Grand Island, N.Y.) and was expressed both as the number of live embryos present after storage and the number of embryos which hatched after 48 hours in culture at 37° C.
Mouse embryos were incubated with either sodium butyrate or a Class II solute at either, room temperature, 30° C. or 4° C. prior to storage in Solution 70/30 for up to five days at 4° C. […] Sodium butyrate replaced sodium chloride at the same concentration in PBS. FIGS. 8A, B and C show the percentage of mouse embryos hatching after 1, 2 and 3 days, respectively, in storage following pretreatment with sodium butyrate at concentrations of 5, 10 or 15 mM for either 10, 20 or 30 minutes. FIGS. 8D, E and F show the percentage of mouse embryos alive after 1, 2 and 3 days, respectively, in storage following pretreatment with sodium butyrate at concentrations of 5, 10 or 15 mM for either 10, 20 or 30 minutes. Pretreatment with sodium butyrate allowed up to 80% of embryos to hatch following three days of storage in Solution 70/30. After 5 days of storage in Solution 70/30 following pretreatment with higher concentrations of sodium butyrate, up to 70% of embryos hatched compared to 2% with no pretreatment (see FIG. 9). Embryos stored in PBS without pretreatment lasted no longer than 3 days. […] FIGS. 10A, B, C and D show the survival of mouse embryos after up to four days of storage in Solution 70/30 at 4° C. following pretreatment with 25 mM sodium butyrate for 5, 10 or 15 minutes at room temperature.

Compound	ranking of Class I and Class II solutes for hatching of stored embryos	embryos hatched (5 days of storage in Solution 70/30 after pretreatment with higher concentrations of sodium butyrate)	embryos hatching (three days of storage in Solution 70/30 at 4° C. after pretreatment with sodium butyrate)
C[N+](C)(C)CC(=O)O [betaine]	second best	–	–
CCCC(=O)[O-].[Na+] [sodium butyrate]	–	up to 70%	up to 80%
C[N+](C)(C)[O-] [TMAO, trimethyl amine oxide]	best Class II solute	–	–
OC[C@H]1O[C@H](OC[C@H]2O[C@H](O[C@]3(CO)O[C@H](CO)[C@@H](O)[C@@H]3O)[C@H](O)[C@@H](O)[C@@H]2O)[C@H](O)[C@@H](O)[C@H]1O [Raffinose, raffinose]	best Class I solute	–	–
OC[C@H]1O[C@H](O[C@H]2O[C@H](CO)[C@@H](O)[C@H](O)[C@H]2O)[C@H](O)[C@@H](O)[C@@H]1O [trehalose]	second best	–	–
